{
  "source": "patent US7829500B2",
  "about": "“Plant-activating agent” (Kao Corporation, priority 2000, dated 2010)",
  "data": [
    {"test_system": "Chlorella cells", "test": "Test of reproductive ability using chlorella cells", "format": "cell-based", "conditions": "Table 1; relative number of chlorella cells after 14 days, non-treated area = 100; LS medium; concentration (ppm) as in table", "method": "(§1) Chlorella cells which were green cells of a […] were cultured with vibration in an inorganic salt medium. […] The concentration of the cells was set to 1.00×10^5 (cells per ml) at the start of the test. […] As the inorganic salt medium, a Linsmaier-Skoog (LS) medium was used. Three media were used as the treated areas and the non-treated areas every the plant-activating agent or the plant-activating composition. The average thereof was compared with that in the non-treated areas.", "values": [
      {"molecule": "Citric acid C18 monoester [Inventive product 1-1]", "reproductive ability": 142},
      {"molecule": "Citric acid C18 monoester potassium salt [Inventive product 1-3]", "reproductive ability": 138},
      {"molecule": "Citric acid C14 monoamide [Inventive product 1-6]", "reproductive ability": 136},
      {"molecule": "Citric acid C18 diester [Inventive product 1-7]", "reproductive ability": 138},
      {"molecule": "Citric acid C18 monoamide [Inventive product 1-5]", "reproductive ability": 139},
      {"molecule": "Citric acid C12 monoamide [Inventive product 1-8]", "reproductive ability": 128},
      {"molecule": "CC(O)C(=O)O", "note": "(stereo not drawn) [Comparative product 1-1, Lactic acid, reference compound]", "reproductive ability": 99}
    ]},
    {"test_system": "Chlorella cells", "test": "Test of reproductive ability using chlorella cells", "format": "cell-based", "conditions": "Table A1; relative number of chlorella cells after 14 days, non-treated area = 100", "method": "as §1", "values": [
      {"molecule": "CCC(=O)O", "note": "[Comparative product A1-3, Propionic acid, reference compound]", "reproductive ability": 94},
      {"molecule": "CCCCCCCCCCCCCCCCCCCCCCCCCCCCCC(=O)O", "note": "[Inventive product A1-7, Melissic acid]", "reproductive ability": 138},
      {"molecule": "CCCCCCCCCCCCCCCCCCCCCC(=O)O", "note": "[Inventive product A1-6, Behenic acid (LUNAC BA)]", "reproductive ability": 150},
      {"molecule": "CC(O)C(=O)O", "note": "(stereo not drawn) [Comparative product A1-4, Lactic acid, reference compound]", "reproductive ability": 93},
      {"molecule": "CCCCCCCCCCCCCC(=O)O", "note": "[Inventive product A1-1, Myristic acid (LUNAC MY-98)]", "reproductive ability": 127},
      {"molecule": "CC(=O)O", "note": "[Comparative product A1-1, Acetic acid, reference compound]", "reproductive ability": 90},
      {"molecule": "CCCCCCCC/C=C\\CCCCCCCC(=O)O", "note": "[Inventive product A1-5, Oleic acid]", "reproductive ability": 148}
    ]},
    {"test_system": "Chlorella cells", "test": "Test of reproductive ability using chlorella cells", "format": "cell-based", "conditions": "Table B1; relative number of chlorella cells after 14 days, non-treated area = 100", "method": "as §1", "values": [
      {"molecule": "O=C1OCC(CO)O1", "note": "(stereo not drawn) [Inventive product B1-9, Glycerol carbonate]", "reproductive ability": 126},
      {"molecule": "CCCCCCCCCCCCCCCCNC(=O)C(O)CO", "note": "(stereo not drawn) [Inventive product B1-7, Glyceric acid cetyl amide]", "reproductive ability": 120},
      {"molecule": "CCCCCCCCCCCCCCCCCCOC(=O)C(O)CO", "note": "(stereo not drawn) [Inventive product B1-6, Glyceric acid stearyl ester]", "reproductive ability": 122},
      {"molecule": "OCC(O)CO", "note": "[Comparative product B1-1, Glycerol, reference compound]", "reproductive ability": 98},
      {"molecule": "Stearic acid monoglyceride [Inventive product B1-3]", "reproductive ability": 132},
      {"molecule": "CCCCCCCCCCCCCCCCCCOCC(O)CO", "note": "(stereo not drawn) [Inventive product B1-4, Batyl alcohol]", "reproductive ability": 130},
      {"molecule": "Hexaglycerol ester of stearic acid [Inventive product B1-8]", "reproductive ability": 123}
    ]}
  ]
}
